Test results: US20210405025A1, “IDENTIFYING COMPOUNDS FOR TREATING CANCER AND USE THEREOF” (THE UAB RESEARCH FOUNDATION, priority 2018, published 2021)
Structures can show the parent of a compound that is named as a salt. Starred links: 1 amine or outer side, 2 acyl side, 3 side chain; linkers in the order of their positions; H or OH if unused. Positions of bridges follow the written chain, without caps; N, C: chain ends. Non-standard residues stand in square brackets, D forms with d. Residues, ends and D or L forms follow the SMILES beside them. Chains are numbered I, II in the order given. Actinocin(9to1) = Cc1c2oc3c(C)ccc(C(=O)[*:1])c3nc-2c(C(=O)[*:2])c(N)c1=O; NMeV = CN[C@H](C(=O)O)C(C)C; Sar = CNCC(=O)O

Test system: relapsed AML cells
Test: Drug sensitivity assay, 1,536-well, 3-day culture with individual approved drugs at 10 μM, viability by alamarBlue
Assay type: cell-based, human
Conditions: number of relapsed AML cases out of 18 tested with >70% cell death; 10 μM, 3-day culture
Description: Drug sensitivity assays were performed using a 1,536-well platform where all cells and reagents were deposited in wells using an acoustic liquid handling unit that is highly accurate for dispensing of nanoliter volumes of liquid. […] After dispensing the cells into the wells, an independent drug at a known concentration is added to each well and incubated with the cells. After three days, the percentage of live cells in each well is determined to assess the killing efficiency of each compound. […] Cell viability assays are known to those of skill in the art. See, for example, Pemovska et al., Individualized systems medicine strategy to tailor treatments for patients with chemorefractory acute myeloid leukemia. Cancer Discovery 3:1416-1429, 2013; Pabst et al., Identification of small molecules that support human leukemia stem cell activity ex vivo. Nature Methods 11:436-442, 2014; Baccelli et al., A novel approach for the identification of efficient combination therapies in primary human acute myeloid leukemia specimens. Blood Cancer Journal 7:e529, 2017. In studies described herein, the 1,536-well format was utilized, which allowed for use of four times fewer cells as well as less drug and media components due to the small assay volume of 5 microliters. […] Other compounds like CellTiter-Glo (Promega, Madison, Wis.) are equally appropriate reagents for determining cell viability.
Conditions for the drug screening assays were as described in Pabst et al., Identification of small molecules that support human leukemia stem cell activity ex vivo, Nature Methods 11:436-442, 2014). Using this protocol, cells were cultured in Iscove's Modified Dulbecco's Medium (IMDM), 15% BIT (bovine serum albumin, insulin, transferrin; Stem Cell Technologies 09500 (Vancouver, Calif.)), 100 ng/ml SCF (Shenandoah 100-04 (Warwick, Pa.)), 50 ng/ml FLT3L (Shenandoah 100-21), 20 ng/ml IL-3 (Shenandoah 100-80), 20 ng/ml G-CSF (Shenandoah 100-72), 10^-4 M β-mercaptoethanol, gentamicin (50 μg/ml) and ciprofloxacin (10 μg/ml).
Cells were removed from liquid nitrogen and placed in a 37° C. bath, just until thawed. For 1,536-well screens utilizing 6,000 wells about 100 million cells were thawed. The volume was doubled with pre-warmed culture media and placed on ice for about one to two minutes. The cells were brought to a final volume of about 8 to 10 mL before spinning down at 1,100 rpm for 5 min at 10° C. The pelleted cells were resuspended in 10 mL of culture media and plated in a tissue-culture treated T75 flask at a density of 1 to 2 million cells/ml. The cells were cultured overnight prior to fluorescence-activated cell sorting of viable cells on the following day.
After cells were cultured overnight, a cell scraper was used to remove any cells that adhered to the plastic. The cells were gently pipetted up and down to break up aggregates. Then, the entire volume was transferred to a 50 mL conical tube through a 70 micron cell strainer to remove cell clumps. The T75 flask was rinsed and scraped with about 10 mL HBSS and transferred to the same 50 mL conical tube through the strainer. The harvested cells were spun down at 1,100 rpm for 5 min at 10° C. The cells were then resuspendd in about 300-500 microliters FACS buffer (HBSS+2% FBS+1× propidium iodide) and transferred to a FACS tube. The tube was placed on ice and viable cells that are forward- and side-scatter gated on viable myeloid blasts were sorted by FACS (the scatter gate should exclude small lymphocytes, large myeloid cells, and debris). After sorting the required number of viable cells, the cells were spun down at 1,100 rpm for 5 min at 10° C. and subsequently resuspended at 4,000-4,500 cells per 5 microliter volume of complete culture media with growth factors and penicillin/streptomycin.

Molecule | #Cases >70% cell death
Cc1ccc(S(=O)(=O)NC(=O)NN2CC3CCCC3C2)cc1 (centres unmarked) [GLICLAZIDE] | 1
COCCCC/C(=N\OCCN)c1ccc(C(F)(F)F)cc1 [FLUVOXAMINE MALEATE] | 1
CCCCC(CC)COC(=O)C(C#N)=C(c1ccccc1)c1ccccc1 (centres unmarked) [OCTOCRYLENE] | 1
CC1(C)CC[C@]2(C(=O)O)CC[C@]3(C)[C@H](C(=O)C=C4[C@@]5(C)C=C(C#N)C(=O)C(C)(C)[C@@H]5CC[C@]43C)[C@@H]2C1 [BARDOXOLONE] | 12
CCOC(=O)C1=C[C@]2(CC)CCCN3CCc4c(n1c1ccccc41)[C@@H]32 [VINPOCETINE] | 1
Cn1cncc1[C@@](N)(c1ccc(Cl)cc1)c1ccc2c(c1)c(-c1cccc(Cl)c1)cc(=O)n2C [TIPIFARNIB] | 7
CC1(C)O[C@@H]2C[C@H]3[C@@H]4C[C@H](F)C5=CC(=O)CC[C@]5(C)[C@H]4[C@@H](O)C[C@]3(C)[C@]2(C(=O)CO)O1 [FLURANDRENOLIDE] | 18
OC(CN1CCC(Cc2ccc(F)cc2)CC1)c1ccc(Cl)cc1 (centres unmarked) [ELIPRODIL] | 1
Cc1cc(CC(C)CC(C)(C)C)n(O)c(=O)c1.NCCO (centres unmarked) [PIROCTONE OLAMINE] | 13
CCOC(=O)c1c(N)sc2c1CCN(Cc1ccccc1)C2 [Y-3642] | 1
CC[C@@]1(O)C(=O)OCc2c1cc1n(c2=O)Cc2cc3c(CN(C)C)c(O)ccc3nc2-1 [TOPOTECAN] | 13
COc1ccc2cc3[n+](cc2c1OC)CCc1cc2c(cc1-3)OCO2 [BERBERINE CHLORIDE] | 1
O=C1CC2(CCCC2)CC(=O)N1CCNCC1COc2ccccc2O1 (centres unmarked) [BINOSPIRONE MESYLATE] | 1
Clc1ccc(CSC(Cn2ccnc2)c2ccc(Cl)cc2Cl)cc1 (centres unmarked) [SULCONAZOLE NITRATE] | 5
NNC(=O)c1ccncc1 [ISONIAZID] | 1
Clc1ccc2c(c1)CCc1cccnc1C2=C1CCNCC1 [DESLORATADINE] | 1
CC[C@@]1(O)C(=O)OCc2c1cc1n(c2=O)Cc2cc3ccccc3nc2-1 [CAMPTOTHECIN] | 12
C[C@@H]1O[C@@H](O[C@H]2C[C@@H](O)[C@]3(CO)[C@H]4[C@H](O)C[C@]5(C)[C@@H](C6=CC(=O)OC6)CC[C@]5(O)[C@@H]4CC[C@]3(O)C2)[C@H](O)[C@H](O)[C@H]1O [OUABAIN] | 18
O=c1cc[nH]c(=O)[nH]1 [URACIL] | 7
CN(C)CC(=O)N1CCC(c2ccc(NC(=O)c3nc(C#N)c[nH]3)c(C3=CCCCC3)c2)CC1 [JNJ-28312141] | 7
FC(F)(F)c1ccc(/C=C/c2nc(COc3ccc(CCCCn4ccnn4)cc3)co2)cc1 [MUBRITINIB] | 1
CCc1nn(CCCN2CCN(c3cccc(Cl)c3)CC2)c(=O)n1CCOc1ccccc1 [NEFAZODONE] | 1
O=C(Nc1ccccc1Br)N[C@@H]1CCN(c2ccc(C(F)(F)F)cn2)C1 [SB-705498] | 1
Nc1nc(NC2CC2)c2ncn([C@H]3C=C[C@@H](CO)C3)c2n1 [ABACAVIR SULFATE] | 1
CN[C@H](C(=O)N[C@H](C(=O)N(C)[C@H](/C=C(\C)C(=O)O)C(C)C)C(C)(C)C)C(C)(C)c1ccccc1 [TALTOBULIN] | 14
COc1c(C)cnc(Cn2cnc3c(Cl)nc(N)nc32)c1C [CNF-2024] | 18
CO[C@H]1C[C@H](O[C@@H]2/C(C)=C/C[C@@H]3C[C@@H](C[C@]4(CC[C@H](C)[C@@H](C5CCCCC5)O4)O3)OC(=O)[C@@H]3C=C(C)/C(=N/O)[C@H]4OC/C(=C\C=C\[C@@H]2C)[C@]43O)O[C@@H](C)[C@@H]1O [SELAMECTIN] | 18

Molecule | #Cases >70% cell death
O=C(CCCCCCC(=O)Nc1cccnc1)NO [PYROXAMIDE] | 15
COC(=O)Nc1nc2cc(C(=O)c3ccc(F)cc3)ccc2[nH]1 [FLUBENDAZOLE] | 2
O=S(=O)([O-])CCSSCCS(=O)(=O)[O-].[Na+].[Na+] [DIMESNA] | 1
CN1CCc2c(c3ccccc3n2Cc2ccccc2)C1 [MEBHYDROLIN] | 1
CCC(C)n1ncn(-c2ccc(N3CCN(c4ccc(OCC5COC(Cn6cncn6)(c6ccc(Cl)cc6Cl)O5)cc4)CC3)cc2)c1=O (centres unmarked) [ITRACONAZOLE] | 6
C#C[C@]1(O)CC[C@H]2[C@@H]3CCc4cc(OC5CCCC5)ccc4[C@H]3CC[C@@]21C [QUINESTROL] | 15
C[C@@H](Oc1cc(-n2cnc3ccc(CN4CCN(C)CC4)cc32)sc1C(N)=O)c1ccccc1C(F)(F)F [GSK 461364] | 9
CCCOc1cc(N)ccc1C(=O)OCCN(CC)CC [PROPOXYCAINE HYDROCHLORIDE] | 1
COc1ccc2c(c1)[nH]c1c(C)nccc12 [HARMINE] | 3
C[C@@]1(C(=O)Nc2ccc(F)nc2)CCCN1c1nc(Nc2cc(C3CC3)n[nH]2)c2cccn2n1 [BMS-754807] | 1
COc1ccc(C2CNC(=O)C2)cc1OC1CCCC1 (centres unmarked) [ROLIPRAM] | 1
Nc1ccn([C@@H]2O[C@H](CO)[C@@H](O)C2(F)F)c(=O)n1 [GEMCITABINE] | 16
GRAMICIDIN [GRAMICIDIN (GRAMICIDIN A SHOWN)] | 9
Cc1c2oc3c(C)ccc(C(=O)N[C@@H]4C(=O)N[C@H](C(C)C)C(=O)N5CCC[C@H]5C(=O)N(C)CC(=O)N(C)[C@@H](C(C)C)C(=O)O[C@@H]4C)c3nc-2c(C(=O)N[C@@H]2C(=O)N[C@H](C(C)C)C(=O)N3CCC[C@H]3C(=O)N(C)CC(=O)N(C)[C@@H](C(C)C)C(=O)O[C@@H]2C)c(N)c1=O [DACTINOMYCIN] (I: T[dV]P[Sar][NMeV] / II: T[dV]P[Sar][NMeV]; ester I:1-I:C, II:1-II:C; linker I:N-II:N via Actinocin(9to1)) | 17
CC(C)c1cc(C(C)C)c(-c2csc(N(CCN(C)C)Cc3cccnc3)n2)c(C(C)C)c1 [FOROPAFANT] | 6
O=C(O)[C@]1(Cc2cccc(Nc3nccs3)n2)CC[C@@H](Oc2cccc(Cl)c2F)CC1 [VX-689 (MK5108)] | 1
CCN(CC)CCNC(=O)c1c(C)[nH]c(/C=C2\C(=O)Nc3ccc(F)cc32)c1C [SUNITINIB MALATE] | 15
AZD-1152 | 5
N[C@@H]1CONC1=O [D-CYCLOSERINE] | 1
CC(=O)OCC(=O)[C@@]12OC3(CCCC3)O[C@@H]1C[C@H]1[C@@H]3CCC4=CC(=O)C=C[C@]4(C)[C@@]3(F)[C@@H](O)C[C@@]12C [AMCINONIDE] | 1
CC[C@H]1OC(=O)C[C@@H](O)[C@H](C)[C@@H](O[C@@H]2O[C@H](C)[C@@H](O)[C@H](N(C)C)[C@H]2O)[C@@H](CCN2C[C@H](C)C[C@H](C)C2)C[C@@H](C)C(=O)/C=C/C(C)=C/[C@@H]1CO[C@@H]1O[C@H](C)[C@@H](O)[C@@H](OC)[C@H]1OC [TILMICOSIN] | 1
CC(C)[C@H](N)C(=O)OCCOCn1cnc2c(=O)[nH]c(N)nc21 [VALACICLOVIR] | 1
C/C=C(\C)C(=O)N[C@@H](c1ccccc1)[C@@H](O)C(=O)O[C@H]1C[C@@]2(O)[C@@H](OC(=O)c3ccccc3)[C@@H]3[C@]4(OC(C)=O)CO[C@@H]4C[C@H](O)[C@@]3(C)C(=O)[C@H](OC(C)=O)C(=C1C)C2(C)C [CEPHALOMANNINE] | 7
Cc1nc2ccc(CN(C)c3ccc(C(=O)N[C@@H](CCC(=O)O)C(=O)O)s3)cc2c(=O)[nH]1 [RALTITREXED] | 3
CC[n+]1c(-c2ccccc2)c2cc(N)ccc2c2ccc(N)cc21 [HOMIDIUM BROMIDE] | 1
CN1CCOC(c2ccccc2)c2ccccc2C1 (centres unmarked) [NEFOPAM] | 2
